# Data: patent US20250144067A1, “PERSONALIZED STARVATION THERAPY FOR CANCER” (Faeth Therapeutics, Inc., priority 2021, published 2025)
# Structures can show the parent of a compound that is named as a salt. Where two headings read alike, the source gives them in different places. Square brackets hold non-standard residues; d marks the D form. Peptide text beside a SMILES is read from it. * marks the point of attachment. dPhe(4-NHCONH2) = NC(=O)Nc1ccc(C[C@@H](N)C(=O)O)cc1; Dihydroorotyl(S) = O=C1C[C@@H](C(=O)*)NC(=O)N1; dPhe(4-Cl) = N[C@H](Cc1ccc(Cl)cc1)C(=O)O; Phe(4-NH2) = Nc1ccc(C[C@H](N)C(=O)O)cc1; d2Nal = N[C@H](Cc1ccc2ccccc2c1)C(=O)O; Lys(iPr) = CC(C)NCCCC[C@H](N)C(=O)O; d3Pal = N[C@H](Cc1cccnc1)C(=O)O
# Experiments:
# [1] = test system: NCI-H292 lung cancer cells; experiment: FDA drug screening, complete media vs cholesterol-free media without statin (TABLE 1); assay type: cell-based, human
# [2] = test system: NCI-H292 lung cancer cells; experiment: FDA drug screening, complete media vs cholesterol-free media with simvastatin (TABLE 2); assay type: cell-based, human
# [3] = NCI-H292 cells, cholesterol-free media without statin
# [4] = NCI-H292 cells, cholesterol-free media with simvastatin 0.04 μM, FDA drug library screen (TABLE 2)
# [5] = NCI-H292 cells, complete media, FDA drug library screen (TABLE 2)
# [6] = complete media minus cholesterol-free media + simvastatin (0.04 μM), >0 enhanced anti-cancer activity, about 0 neutral, <0 antagonist
# [7] = Complete minus Cholesterol-free, >0 enhanced anti-cancer activity, about 0 neutral, <0 antagonist
# [8] = complete media minus cholesterol-free media + simvastatin, >0 enhanced anti-cancer activity, about 0 neutral, <0 antagonist
# [9] = Complete minus Cholesterol-free, […]
# [10] = NCI-H292 cells, cholesterol-free media without statin, FDA drug library screen
# [11] = NCI-H292 cells, complete media, FDA drug library screen
# [12] = NCI-H292 cells, FDA drug library screen, cholesterol-free media with simvastatin 0.04 μM
# [13] = NCI-H292 cells, FDA drug library screen, complete media
# [14] = Complete minus Cholesterol-free, greater than 0 enhanced anti-cancer activity, about 0 neutral, below 0 antagonists
# [15] = NCI-H292 cells in cholesterol-free media without statin
# [16] = NCI-H292 cells in complete media
# [17] = NCI-H292 cells, FDA library drug in cholesterol-free media with simvastatin 0.04 μM
# [18] = NCI-H292 cells, FDA library drug in complete media
# [19] = complete media vs cholesterol-free media + simvastatin (0.04 μM), >0 enhanced anti-cancer activity, about 0 neutral, <0 antagonist
# [20] = complete media vs cholesterol-free media + simvastatin (0.04 μM), […]
# [21] = complete media minus cholesterol-free media + simvastatin (0.04 μM), […]
# [22] = Complete minus Cholesterol-free, greater than 0 enhanced anti-cancer activity, about 0 neutral, below 0 antagonist
# [23] = NCI-H292 cells, FDA drug library screen, cholesterol-free media without statin
# [24] = complete vs cholesterol-free media, >0 enhanced anti-cancer activity, about 0 neutral, <0 antagonist
compound,measurement,setting,value
CN(C)[C@@H]1C(O)=C(C(N)=O)C(=O)[C@@]2(O)C(O)=C3C(=O)c4c(O)cccc4[C@@](C)(O)[C@H]3C[C@@H]12 [Tetracycline (hydrochloride)],Cholesterol-free,[1]; [3],1.387
same,Complete,"[1]; NCI-H292 cells, complete media",0.93
same,Difference,"[1]; complete vs cholesterol-free media, greater than 0 enhanced anti-cancer activity, about 0 neutral, below 0 antagonists",−0.46
same,Cholesterol-free media + simvastatin (0.04 μM),[2]; [4],0.7005
same,Complete Media,[2]; [5],0.7002
same,Difference,[2]; [6],0.00
CCCCC1C(=O)N(c2ccccc2)N(c2ccccc2)C1=O [Phenylbutazone],Difference,[1]; [7],−0.26
same,Cholesterol-free,[1]; [3],1.376
same,Complete,"[1]; NCI-H292 cells, complete media",1.114
same,Cholesterol-free media + simvastatin (0.04 μM),"[2]; NCI-H292 cells, cholesterol-free media with simvastatin 0.04 μM, cell growth value in FDA drug screen",1.076
same,Difference,[2]; [8],0.07
C[C@@H]1CCO[C@H]2Cn3cc(C(=O)NCc4ccc(F)cc4F)c(=O)c(O)c3C(=O)N12 [Dolutegravir],Difference,[1]; [7],−0.20
same,Cholesterol-free,[1]; [3],0.9033
same,Complete,"[1]; NCI-H292 cells, complete media",0.7062
same,Cholesterol-free media + simvastatin (0.04 μM),[2]; [4],0.5964
same,Complete Media,[2]; [5],0.5738
same,Difference,[2]; [6],−0.02
Br.CCN1C[C@]2(OC(=O)c3ccccc3NC(C)=O)CC[C@H](OC)[C@@]34[C@@H]2C[C@@H]([C@@H]13)[C@@]1(O)C[C@H](OC)[C@H]2C[C@@H]4[C@]1(O)[C@H]2OC [Lappaconitine (hydrobromide)],Difference,[1]; [9],−0.05
same,Cholesterol-free,[1]; [10],1.017
same,Complete,[1]; [11],0.9704
same,Cholesterol-free media + simvastatin (0.04 μM),[2]; [12],1.123
same,Complete Media,[2]; [13],1.322
same,Difference,"[2]; complete media minus cholesterol-free media + simvastatin, […]",0.20
CO[C@@]1(NC(=O)C(C(=O)O)c2ccc(O)cc2)C(=O)N2C(C(=O)O)=C(CSc3nnnn3C)CO[C@@H]21 (some centres unmarked) [Moxalactam (sodium salt)],Difference,[1]; [14],−0.79
same,Cholesterol-free,[1]; [15],1.849
same,Complete,[1]; [16],1.058
same,Cholesterol-free media + simvastatin (0.04 μM),[2]; [17],1.994
same,Complete Media,[2]; [18],1.097
same,Difference,[2]; [19],−0.90
CC(=O)Nc1ccc(C(=O)O)cc1.CC(=O)Nc1ccc(C(=O)O)cc1.CC(=O)Nc1ccc(C(=O)O)cc1.CC(O)CN(C)C.CC(O)CN(C)C.CC(O)CN(C)C.O=c1[nH]cnc2c1ncn2[C@@H]1O[C@H](CO)[C@@H](O)[C@H]1O [Inosine pranobex],Difference,[1]; [9],−0.24
same,Cholesterol-free,[1]; [3],1.096
same,Complete,"[1]; NCI-H292 cells, complete media",0.8599
same,Cholesterol-free media + simvastatin (0.04 μM),"[2]; NCI-H292 cells, drug in cholesterol-free media with simvastatin 0.04 μM",1.233
same,Complete Media,"[2]; NCI-H292 cells, drug in complete media",0.9799
same,Difference,[2]; [20],−0.25
CC(O)C(=O)O.CCOc1ccc2nc3cc(N)ccc3c(N)c2c1.O [Ethacridine (lactate monohydrate)],Difference,[1]; [9],−0.05
same,Cholesterol-free,[1]; [10],0.2006
same,Complete,[1]; [11],0.1519
same,Cholesterol-free media + simvastatin (0.04 μM),[2]; [4],0.1737
same,Complete Media,[2]; [5],0.1706
same,Difference,[2]; [21],0.00
CC(=O)N(CC(O)CO)c1c(I)c(C(=O)NCC(O)CO)c(I)c(C(=O)NCC(O)CO)c1I (centres unmarked) [Iohexol],Difference,[1]; [22],−0.14
same,Cholesterol-free,[1]; [23],1.062
same,Complete,[1]; [13],0.9228
same,Cholesterol-free media + simvastatin (0.04 μM),[2]; [17],1.632
same,Complete Media,[2]; [18],0.8317
same,Difference,[2]; [19],−0.80
C[N+]1(CC2CC2)[C@@H]2C[C@@H](OC(=O)[C@H](CO)c3ccccc3)C[C@H]1[C@@H]1O[C@@H]12.[Br-] (some centres unmarked) [Cimetropium (Bromide)],Cholesterol-free,[1],0.8786
same,Complete,[1],0.8182
same,Difference,[1],−0.06
same,Cholesterol-free media + simvastatin (0.04 μM),[2],1.704
same,Complete Media,[2],1.429
same,Difference,[2],−0.28
COc1cc2c(cc1OC)C(=O)C(CC1CCN(Cc3ccccc3)CC1)C2 (centres unmarked) [Donepezil (Hydrochloride)],Difference,[1]; [7],−0.23
same,Cholesterol-free,[1]; [3],0.9321
same,Complete,"[1]; NCI-H292 cells, complete media",0.7035
same,Cholesterol-free media + simvastatin (0.04 μM),[2]; [12],0.6694
same,Complete Media,[2]; [13],0.8164
same,Difference,[2]; [8],0.15
CC(=O)N[C@H](Cc1ccc2ccccc2c1)C(=O)N[C@H](Cc1ccc(Cl)cc1)C(=O)N[C@H](Cc1cccnc1)C(=O)N[C@@H](CO)C(=O)N[C@@H](Cc1ccc(NC(=O)[C@@H]2CC(=O)NC(=O)N2)cc1)C(=O)N[C@H](Cc1ccc(NC(N)=O)cc1)C(=O)N[C@@H](CC(C)C)C(=O)N[C@@H](CCCCNC(C)C)C(=O)N1CCC[C@H]1C(=O)N[C@H](C)C(N)=O [Degarelix] (Ac-[d2Nal][dPhe(4-Cl)][d3Pal]S[Phe(4-NH2)](Dihydroorotyl(S))[dPhe(4-NHCONH2)]L[Lys(iPr)]P[dA]-NH2),Difference,[1]; [9],−0.81
same,Cholesterol-free,[1]; [15],1.673
same,Complete,[1]; [16],0.859
same,Cholesterol-free media + simvastatin (0.04 μM),[2]; [4],1.679
same,Complete Media,[2]; [5],1.609
same,Difference,[2]; [21],−0.07
CC(C)NCC(O)COc1ccc(CCOCC2CC2)cc1 (centres unmarked) [Betaxolol],Difference,[1]; [22],−0.10
same,Cholesterol-free,[1]; [23],1.183
same,Complete,[1]; [13],1.079
same,Cholesterol-free media + simvastatin (0.04 μM),[2]; [4],0.941
same,Complete Media,[2]; [5],0.9172
same,Difference,[2]; [6],−0.02
Oxolamine (citrate),Cholesterol-free,[1],1.162
same,Complete,[1],0.9128
same,Difference,[1],−0.25
same,Cholesterol-free media + simvastatin (0.04 μM),[2],0.8466
same,Complete Media,[2],1.01
same,Difference,[2],0.16
CCCCC[C@H](O)CC[C@@H]1[C@H]2Cc3cccc(OCC(=O)O)c3C[C@H]2C[C@H]1O [Treprostinil],Difference,[1]; [14],−0.50
same,Cholesterol-free,[1]; [15],1.45
same,Complete,[1]; [16],0.9512
same,Cholesterol-free media + simvastatin (0.04 μM),[2]; [17],1.177
same,Complete Media,[2]; [18],0.8507
same,Difference,[2]; [19],−0.33
NCCC(O)(P(=O)([O-])O)P(=O)([O-])O.O.O.O.O.O.[Na+].[Na+] [Pamidronate (disodium pentahydrate)],Difference,[1]; [22],−0.12
same,Cholesterol-free,[1]; [23],1.305
same,Complete,[1]; [13],1.183
same,Cholesterol-free media + simvastatin (0.04 μM),[2]; [12],1.169
same,Complete Media,[2]; [13],1.009
same,Difference,[2]; [19],−0.16
CCOC(=O)CC(=O)N1CCSC1COc1ccccc1OC (centres unmarked) [Moguisteine],Cholesterol-free,[1]; [10],0.7084
same,Complete,[1]; [11],1.262
same,Difference,[1]; [24],0.55
same,Cholesterol-free media + simvastatin (0.04 μM),[2]; [4],0.9351
same,Complete Media,[2]; [5],0.879
same,Difference,[2]; [6],−0.06
Cc1c(Cl)c(C)[n+]([O-])c(Cl)c1-c1noc(-c2cc(O)c(O)c([N+](=O)[O-])c2)n1 [Opicapone],Difference,[1]; [22],−0.13
same,Cholesterol-free,[1]; [23],0.8861
same,Complete,[1]; [13],0.7591
same,Cholesterol-free media + simvastatin (0.04 μM),[2]; [4],0.9346
same,Complete Media,[2]; [5],0.8971
same,Difference,[2]; [6],−0.04
CCCCCN(C)CCC(O)(P(=O)(O)O)P(=O)(O)O [Ibandronate (Sodium Monohydrate)],Difference,[1]; [7],−0.03
same,Cholesterol-free,[1]; [10],1.101
same,Complete,[1]; [11],1.074
same,Cholesterol-free media + simvastatin (0.04 μM),[2]; [17],1.077
same,Complete Media,[2]; [18],0.796
same,Difference,[2]; [19],−0.28
CCC(=O)O[C@H]1CC[C@H]2[C@@H]3CCC4=CC(=O)CC[C@]4(C)[C@H]3CC[C@]12C [Testosterone propionate],Cholesterol-free,[1]; [3],1.308
same,Complete,"[1]; NCI-H292 cells, complete media",0.9212
same,Difference,"[1]; complete vs cholesterol-free media, […]",−0.39
same,Cholesterol-free media + simvastatin (0.04 μM),[2]; [17],1.059
same,Complete Media,[2]; [18],0.7669
same,Difference,[2]; [20],−0.29
C#C[C@]1(O)CC[C@H]2[C@@H]3CCC4=CC(=O)CC[C@@H]4[C@H]3CC[C@@]21C [Norethindrone],Cholesterol-free,[1]; [10],1.186
same,Complete,[1]; [11],1.412
same,Difference,[1]; [24],0.23
same,Cholesterol-free media + simvastatin (0.04 μM),[2]; [12],0.8746
same,Complete Media,[2]; [13],1.458
same,Difference,[2]; [8],0.58
